In general, pKd refers to −log10 of the Kd, conventionally taken in molar units.

pKd: −log10 of the molar value. Read-outs that look alike come from different tables or passages of the source.

Data on 1 compound can be found in patent publication US20250283056A1, “MODIFIED O-[…] USEFUL FOR PRODUCTION OF O-METHYLATED PHENOLIC NATURAL PRODUCTS” (The University of Hong Kong, priority 2024, published 2025).

The target of test [1] is T1, SbSOMT (Sorghum bicolor, UniProt A0A1B6PFV1). Nature of the test: Isothermal titration calorimetry (ITC), SbSOMT wild type. The class given is binding. Here is the method: (§1) Isothermal titration calorimetry (ITC) assays were conducted with MicroCal iTC200 (Malvern Panalytical, UK). […] Both cell sample and titrant were equilibrated to ITC buffer consisting of 100 mM HEPES pH 7.9 with 2.5% (v/v) PEG 400. For ITC assays involving pterostilbene, PEG 400 concentration was increased to 5% (v/v). Each run incorporated an initial delay of 60 s prior to the first injection (0.5 μl) and spaced 150 s between the subsequent 19 injections (2.0 μl) at 25° C. During the runs, the cell was continuously stirred at 750 rpm by flat paddle. Results were analysed based on the 2nd to 20th injections using the Origin (MicroCal Software, USA) and PEAQ-ITC software (Malvern Panalytical, UK).
On the technique in general: Isothermal titration calorimetry measures the heat released or taken up as one component is titrated into another.

The target in test [2] is T2, SbCOMT (Sorghum bicolor, UniProt Q84X55). Nature of the test: Isothermal titration calorimetry (ITC), SbCOMT wild type. Format: binding. How it is done: as §1
The target of test [3] is SbSOMT I144N/F337N. Description: ITC, SbSOMT I144N/F337N mutant protein. Format: binding, Sorghum bicolor. Here is the method: Desired mutations of SbSOMT were introduced into its construct using specific primers (Table 11). Expression constructs were transformed into Rosetta™ (DE3) competent Escherichia coli cells (Novagen, Germany). Protein expression was induced with 0.1 mM Isopropyl-β-thiogalactopyranoside (IPTG) overnight at 16° C. E. coli cells were harvested, resuspended in lysis buffer (20 mM Tris buffer pH 7.9, 300 mM NaCl, 2.5 mM β-mercaptoethanol), and lysed by sonication. Crude proteins were loaded onto a HisTrap HP column (Cytiva, USA) connected to a AKTA pure chromatography system (Cytiva, USA). Column was washed with 15 column volumes of lysis buffer with 50 mM imidazole. Proteins were eluted over a gradient of 50-500 mM imidazole. Eluate fractions with the target OMT were pooled, digested with TEV protease, and simultaneously dialyzed against a low salt buffer (20 mM Tris pH 7.9, 50 mM NaCl, 2.5 mM β-mercaptoethanol) overnight at 4° C. The dialyzed sample was filtered and flowed through HisTrap to remove His-tagged components. The flowthrough was then loaded to HiTrap Q FF columns (Cytiva, USA) over a gradient of 50-1000 mM NaCl. […]
Isothermal titration calorimetry (ITC) assays were conducted with MicroCal iTC200 (Malvern Panalytical, UK). […] Results were analysed based on the 2nd to 20th injections using the Origin (MicroCal Software, USA) and PEAQ-ITC software (Malvern Panalytical, UK).

Test [4] has as its target T1, SbSOMT. Nature of the test: In vitro OMT enzyme assay, recombinant SbSOMT. Format: biochemical. The settings on record: two-hour incubation with 100 μM resveratrol. How it is done: (§2) To screen for OMT activities, purified stilbene products of enzyme assays were separated by a Synergi C18 column (Synergi 4μ Fusion RP 80 Å, 50×2 mm, Phenomenex, USA) under a flow rate of 0.5 ml min-1 over a 6 min linear gradient of 10%-90% B (described below). […] Meanwhile, purified phenylpropanoid products of enzyme assays were separated on the same column connected to a HP1100 series HPLC system (Agilent Technologies, USA) linked to an AP3200-QTRAP mass spectrometer (AB Sciex, China) operating under the multiple-reaction-monitoring (MRM) mode. To quantify these products, assay products were separated on a Kinetex C18 column (Kinetex 2.6 μm C18 100 Å, 100×2.1 mm, Phenomenex, USA) connected to a HP1100 series HPLC system (Agilent Technologies, USA) linked to an AP3200-QTRAP mass spectrometer (AB Sciex, China) operating under the multiple-reaction-monitoring (MRM) mode. A linear gradient of 10%-90% B under a flow rate of 0.3 ml min-1 over 6 min was used to further enhance sensitivity. Total metabolites from all plant tissues were separated by the same Kinetex C18 column connected to the X500R QTOF-HRMS system. A linear gradient under a flow rate of 0.3 ml min-1 over a 20 min linear gradient of 10%-90% B was used.
(§3) Reaction products were extracted twice with ethyl acetate. […] All reactions were done in triplicates.

Test [5] addresses T2, SbCOMT. Nature of the test: In vitro OMT enzyme assay, recombinant SbCOMT. The settings on record: two-hour incubation with 100 μM resveratrol. The class given is biochemical. Here is the method: as §2, §3
For a further test, the system named is SbOMT4. Nature of the test: In vitro OMT enzyme assay, recombinant SbOMT4. Format: biochemical, Sorghum bicolor. Here is the method:
as §2, §3

The test system of another test is SsCOMT. Nature of the test: In vitro OMT enzyme assay, recombinant SsCOMT. Format: biochemical, Saccharum spontaneum. The settings on record: two-hour incubation with 100 μM substrate. How it is done: as §2, §3
A further test concerns the target SbSOMT D283A (Sorghum bicolor, UniProt A0A1B6PFV1, D283A). To be noted: SbSOMT D283A incubated with resveratrol, one hour. The source says: (§4) Data are expressed as yields relative to that of wild-type SbSOMT protein (WT). […] Data are expressed as yields relative to that of wild-type SbSOMT protein (WT). Values refer to means±SD (n=3). Asterisks indicate significant differences between mutant protein and WT (Student's t-test, ***: p<0.001). Tricin was used as an internal standard for quantitation. […] Dots represent individual data points.
(§5) Desired mutations of SbSOMT were introduced into its construct using specific primers (Table 11). Expression constructs were transformed into Rosetta™ (DE3) competent Escherichia coli cells (Novagen, Germany). Protein expression was induced with 0.1 mM Isopropyl-β-thiogalactopyranoside (IPTG) overnight at 16° C. E. coli cells were harvested, resuspended in lysis buffer (20 mM Tris buffer pH 7.9, 300 mM NaCl, 2.5 mM β-mercaptoethanol), and lysed by sonication. […]
(§6) For initial screening of OMT activities, purified OMT enzymes (10 μg) were incubated in 100 mM HEPES buffer (pH 7.9), 200 μM S-adenosyl-L-methionine (SAM) and 100 μM of phenylpropanoid or stilbene substrates (final volume 200 μl) at 30° C. for 2 h. Enzyme kinetics were determined by incubating 1 μg protein with 100 mM HEPES buffer (pH 7.9), 300 μM SAM, and stilbene concentrations ranging from 5 to 200 μM at 30° C. for 5 min. […]

In another test the target is SbSOMT E342A (Sorghum bicolor, UniProt A0A1B6PFV1, E342A). To be noted: SbSOMT E342A incubated with resveratrol, one hour.
Source text: as §4, §5, §6

In a further test the test system is SbSOMT F337N. Description: Catalytic assay, SbSOMT F337N mutant protein. The class given is biochemical, Sorghum bicolor. To be noted: SbSOMT F337N vs WT, resveratrol, one-hour incubation.
Source text: as §4, §5, §6

Test [6] relates to SbSOMT I144N/F337N. Nature of the test: Catalytic assay, SbSOMT I144N/F337N mutant protein. Format: biochemical, Sorghum bicolor. To be noted: resveratrol, one-hour incubation.
Source text: as §4, §5, §6

Take `Oc1ccc(C=Cc2cc(O)cc(O)c2)cc1` [Resveratrol, resveratrol]: the pKd on SbSOMT [1] is 5.33; at SbCOMT [2], 5.81. Moreover, the Kd entry on SbSOMT I144N/F337N [3] is “No binding”; at SbSOMT I144N/F337N [3] (listed as resveratrol), “undetectable binding affinities”. Moreover, the “conversion of resveratrol into pterostilbene” value on SbSOMT [4] is given as “about 60%”. Moreover, the “resveratrol 3,5-bis-O-methylation activities” value at SbCOMT [5] is listed as “poor resveratrol 3,5-bis-O-methylation activities”. For the same compound, the “SOMT activities with resveratrol as substrate” value with SbOMT4 is recorded as “minimal SOMT activities”. Moreover, the “formation of O-methylated product” value in the test with SsCOMT is “only small amounts of pinostilbene were generated”. Moreover, the pterostilbene formation entry on SbSOMT D283A and on SbSOMT E342A was “failed to generate pterostilbene” each time. Further, the “less pterostilbene produced compared to WT” value in the test on SbSOMT F337N was 97.7%. For the same compound, the “more pinostilbene accumulated compared to WT” value in the test with SbSOMT F337N is 50.8%. In addition, the SOMT activities entry in the test with SbSOMT I144N/F337N [6] was “complete abolishment of SOMT activities”.
